Reference: patent publication EP2525224A1, “VDAC1-S as a cell marker” (Centre National de la Recherche Scientifique, priority 2011, dated 2012)

Columns and labels:
Type in all cases: cell-based
LS174 cells [1] = assay: Caspase 3/7 activity (Caspase-Glo 3/7); settings: hypoxic cancer cells
Protocol: Quantification of the caspase 3/7 activity was done using a luciferin/luciferase based assay (Caspase-Glo 3/7 kit, Promega) according to the manufacture's instructions. Each condition was performed 8 times and the entire experiment was done 3 times. Significant differences are based on the Student's t test * p < 0.005. To test ABT-737 (Hickman et al., 2008, J Neurophysiol 99, 1515), LS 174 cells were cultured for 72 h in normoxia (N) or hypoxia 1% O2 (H 1 %) and ABT was then added for 24 h at different concentrations (0, 2 or 10 µM). Staurosporine (1 µg/ml) was added (+ Stau) 4 h prior to assay for caspase 3/7 activity, […]

LS174 cells [2] = assay: Immunofluorescence of cytochrome c release; settings: with staurosporine
Protocol: Cells were grown on glass coverslips and then fixed in 3.3% paraformaldehyde for 30 min at room temperature (RT), permeabilized with 0.2% Triton X-100 for 5 min. Cells were blocked with phosphate-buffered saline (PBS) containing 0.2% gelatin, 2% bovine serum albumin for 30 min at RT, and incubated with anti-rabbit HIF-1α (1/1000 - described in "Immunoblotting"), and/or anti-mouse cyto. c (1/500 - BD Bioscience) or anti-rabbit VDAC (1/400 - Abcam) antibodies in PBS for 3 h at RT. After washing, cells were incubated in the presence of a biotinylated anti-mouse secondary antibody conjugated to Alexa 594 (1:400) or anti-rabbit secondary antibody conjugated to Alexa 488 (1:400) for 1 h at RT (Invitrogen). After washing, coverslips were mounted in Cytifluor (Amersham Biosciences), detection of the fluorescence was performed with a Leica DMR fluorescence microscope, and images were recorded using RSImage software.

LS174 cells [3] = assay: Flow cytometric analysis of mitochondrial transmembrane potential (ΔΨm) with DiOC6(3); settings: staurosporine 1 µM for 18h
Protocol: The following fluorochromes were employed to determine mitochondrial function by cytofluorometry: 3,3'-dihexyloxacarbocyanine iodide [DiOC6(3), 50 nM (Invitrogen) for mitochondrial transmembrane potential (ΔΨm) quantification and propidium iodide (PI; 1 µg/ml (Sigma) for determination of cell viability (all from Molecular Probes). Cells were trypsinized and labeled with the fluorochromes at 37°C, followed by cytofluorometric analysis with a fluorescence-activated cell sorter (FACS) scan (Becton Dickinson). The fluorescence intensity of DiOC6 (3) (which measures ΔΨm) is plotted against the propidium iodide signal ([…]). The CellQuest software (Becton Dickinson) was used for the data analysis.

## COc1cc([C@@H]2c3cc4c(cc3[C@@H](O[C@@H]3O[C@@H]5CO[C@@H](C)O[C@H]5[C@H](O)[C@H]3O)[C@H]3COC(=O)[C@H]23)OCO4)cc(OC)c1O [etoposide]
LS174 cells [1]
  induced apoptosis: resistant

## CN[C@@H]1C[C@H]2O[C@@](C)([C@@H]1OC)n1c3ccccc3c3c4c(c5c6ccccc6n2c5c31)C(=O)NC4 [staurosporine]
LS174 cells [2]; hypoxic cells with enlarged mitochondria
  release of mitochondrial cytochrome c into the cytoplasm: do not show release of cyto. c
LS174 cells [2]; normoxia
  release of mitochondrial cytochrome c into the cytoplasm: released mitochondrial cytochrome c (cyto. c) into the cytoplasm
LS174 cells [1]
  induced apoptosis: resistant
LS174 cells [3]; hypoxia 1 % O2 for 72h
  ΔΨm: remained unaffected
LS174 cells [3]; normoxia
  ΔΨm: decreased
